In patent publication US20030044399A1, “Method of treatment” (SmithKline Beecham Corporation, priority 1998, published 2003):
Where two headings read alike, the source gives them in different places.

Assays:
Cruzain = Cruzain (Trypanosoma cruzi, UniProt P25779); test: Cysteine protease inhibition, progress curve method, cruzain; type: biochemical; settings: 4 uM Ac-Lys-Glu-Lys-Leu-Arg-AMC, 100 mM Na acetate pH 5.5, 5 mM cysteine; read-out: Cruzain Ki
Method in brief: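 Buffer was 100 mM sodium acetate pH 5.5 with 5 mM cysteine and 2% DMSO, at ambient temperature; reactions started with enzyme, and AMC formation was followed for 20–30 min. Substrates: Leishmania and Schistosoma, 10 uM Cbz-Phe-Arg-AMC; falcipain, 10 uM Cbz-Leu-Arg-AMC; cruzain, 4 uM Ac-Lys-Glu-Lys-Leu-Arg-AMC. Linear curves gave Ki,app; curved ones gave kobs/[I].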

Rhodazain = Rhodazain (Trypanosoma brucei rhodesiense, UniProt Q95PM0); test: Cysteine protease inhibition, progress curve method, rhodazain; type: biochemical, Trypanosoma brucei rhodesiensi; settings: 10 uM Cbz-Leu-Arg-AMC, 100 mM Na acetate pH 5.5, 5 mM cysteine
Chain of Rhodazain (Q95PM0 entry or part of it): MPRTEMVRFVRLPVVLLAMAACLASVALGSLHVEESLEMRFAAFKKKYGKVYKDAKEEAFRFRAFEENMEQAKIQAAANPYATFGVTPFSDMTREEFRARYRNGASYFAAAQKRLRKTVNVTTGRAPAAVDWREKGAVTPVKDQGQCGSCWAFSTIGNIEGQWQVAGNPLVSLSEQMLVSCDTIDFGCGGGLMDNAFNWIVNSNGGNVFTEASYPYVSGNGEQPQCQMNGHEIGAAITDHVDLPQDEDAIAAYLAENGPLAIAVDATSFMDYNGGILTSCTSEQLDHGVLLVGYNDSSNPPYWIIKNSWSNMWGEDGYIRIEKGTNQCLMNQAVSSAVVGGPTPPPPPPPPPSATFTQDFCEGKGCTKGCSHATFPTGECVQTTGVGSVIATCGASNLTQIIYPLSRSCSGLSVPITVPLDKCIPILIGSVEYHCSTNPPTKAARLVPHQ

Chain of Cruzain (P25779 123-337): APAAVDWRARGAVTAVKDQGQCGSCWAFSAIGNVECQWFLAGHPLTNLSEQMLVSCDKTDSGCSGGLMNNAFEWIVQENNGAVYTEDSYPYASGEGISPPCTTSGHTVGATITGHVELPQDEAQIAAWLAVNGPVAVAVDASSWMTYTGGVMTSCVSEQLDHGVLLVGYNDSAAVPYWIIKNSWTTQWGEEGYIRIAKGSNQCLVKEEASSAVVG

## Cc1cccnc1S(=O)(=O)N1CCC[C@@H](NC(=O)[C@@H](CC(C)C)NC(=O)c2cc3sccc3s2)C(=O)C1 [Example 160, Thieno [3.2-b]thiophene-2-carboxylic acid {(S)-3-methyl-1-[1-(3-methyl-pyridine-2-sulfonyl)-3-oxo-azepan-4-ylcarbamoyl]-butyl}amide]
Cruzain
  Ki: 7.4 nM
Rhodazain; Rhodazain Ki (nM)
  Ki: 6.7 nM

## COc1cccc2oc(C(=O)N[C@@H](CC(C)C)C(=O)NC3CCCN(S(=O)(=O)c4cccc[n+]4[O-])CC3=O)c(C)c12 (stereo partly drawn) [Example 209, 4-Methoxy-3-methyl-benzofuran-2-carboxylic acid {(S)-3-methyl-1-[3-oxo-1-(1-oxy-pyridine-2-sulfonyl)-azepan-4-ylcarbamoyl]-butyl}-amide]
Cruzain
  Ki: 8.9 nM
Rhodazain; read-out: Rhodazain Ki
  Ki: 4.1 nM

## Cc1cccnc1S(=O)(=O)N1CCC[C@@H](NC(=O)[C@@H](CC(C)C)NC(=O)c2oc3ccccc3c2C)C(=O)C1 (stereo in doubt) [Example 161, 3-Methyl-benzofuran-2-carboxylic acid {(S)-3-methyl-1-[1-(3-methyl-pyridine-2-sulfonyl)-3-oxo-azepan-4-ylcarbamoyl]-butyl}amide]
Cruzain
  Ki: 7.8 nM
Rhodazain; Rhodazain Ki (nM)
  Ki: 6.4 nM

## Cc1ccc(C(=O)NC(CC(C)C)C(=O)N[C@@H]2CCCN(S(=O)(=O)c3cccc[n+]3[O-])CC2=O)s1 (stereo partly drawn) [Example 79, 5-Methyl-thiophene-2-carboxylic acid {(S)-3-methyl-1-[3-oxo-1-(1-oxy-1pyridine-2-sulfonyl)-azepan-4-ylcarbamoyl]-butyl}amide]
Cruzain
  Ki: 16 nM
Rhodazain; Rhodazain Ki (nM)
  Ki: 8 nM

## CC(C)C[C@@H](NC(=O)c1nccc2ccccc12)C(=O)N[C@@H]1CCCN(S(=O)(=O)c2ccccn2)CC1=O (single isomer, unassigned) [Example 154]
Cruzain
  Ki: 4.4 nM
Rhodazain; Rhodazain Ki (nM)
  Ki: 4.4 nM

## CCc1c(C(=O)NC(CC(C)C)C(=O)N[C@H]2CCN(S(=O)(=O)c3cccc[n+]3[O-])CCC2=O)oc2ccccc12 (single isomer, unassigned) [Example 207]
Cruzain
  Ki: 10 nM
Rhodazain; Rhodazain Ki (nM)
  Ki: 5.4 nM

## CC(C)C[C@H](NC(=O)c1cc2cc(O)ccc2o1)C(=O)N[C@H]1CCCN(S(=O)(=O)c2cn(C)cn2)CC1=O [Example 44, 5-Hydroxy-benzofuran-2-carboxylic acid {(S)-3-methyl-1-[1-(1-methyl-1H-imidazole-4-sulfonyl)-3-oxo-azepan-4-ylcarbamoyl]-butyl}amide]
Cruzain
  Ki: 11 nM
Rhodazain; Rhodazain Ki (nM)
  Ki: 7.2 nM

## CC(C)C[C@H](NC(=O)c1cc2ccccc2o1)C(=O)N[C@H]1C[C@H](C)CN(S(=O)(=O)c2ccccn2)CC1=O (single isomer, unassigned) [Example 167]
Cruzain
  Ki: 3.5 nM
Rhodazain; Rhodazain Ki (nM)
  Ki: 4 nM

## Cc1oc(-c2ccccc2)nc1C(=O)N[C@@H](CC(C)C)C(=O)NC1CCCN(S(=O)(=O)c2ccccn2)CC1=O (stereo partly drawn) [Example 106, 5-Methyl-2-phenyl-oxazole-4-carboxylic acid {(S)-3-methyl-1-[3-oxo-1-(pyridine-2-sulfonyl)-azepan-4-ylcarbamoyl]-butyl}amide]
Cruzain
  Ki: 16 nM
Rhodazain; Rhodazain Ki (nM)
  Ki: 5.8 nM

## Cc1c(C(=O)N[C@H](CC(C)C)C(=O)NC2CCCN(S(=O)(=O)c3cccc[n+]3[O-])CC2=O)oc2ccccc12 (stereo partly drawn) [Example 57, 3-Methyl-benzofuran-2-carboxylic acid {(S)-3-methyl-1-[3-oxo-1-(1-oxy-pyridine-2-sulfonyl)-azepan-4-ylcarbamoyl]-butyl}amide]
Cruzain
  Ki: 10 nM
Rhodazain; Rhodazain Ki (nM)
  Ki: 5.4 nM

## COc1ccc2c(C)c(C(=O)NC(CC(C)C)C(=O)N[C@H]3CCN(S(=O)(=O)c4cccc[n+]4[O-])CCC3=O)oc2c1 (single isomer, unassigned) [Example 211]
Cruzain
  Ki: 10 nM
Rhodazain; Rhodazain Ki (nM)
  Ki: 2.8 nM

## CC(C)C[C@H](NC(=O)c1cc2ccccc2o1)C(=O)N[C@H]1CCCN(S(=O)(=O)c2nccs2)CC1=O [Example 130, Benzofuran-2-carboxylic acid {(S)-3-methyl-1-[3-oxo-1-(thiazole-2-sulfonyl)-azepan-4-ylcarbamoyl]-butyl}amide]
Cruzain
  Ki: 2.5 nM
Rhodazain; Rhodazain Ki (nM)
  Ki: 2.6 nM

## Cc1c(C(=O)N[C@H](CC(C)C)C(=O)N[C@@H]2CCCN(S(=O)(=O)c3cccc[n+]3[O-])CC2=O)oc2ccccc12 (single isomer, unassigned) [Example 99]
Cruzain
  Ki: 7.8 nM
Rhodazain; Rhodazain Ki (nM)
  Ki: 5.1 nM

## CC(C)C[C@@H](NC(=O)c1cc2cc(F)ccc2o1)C(=O)N[C@H]1CCCN(S(=O)(=O)c2cccc[n+]2[O-])CC1=O [Example 191, 5-Fluoro-benzofuran-2-carboxylic acid {(S)-3-methyl-1-[3-oxo-1-(1-ox-pyridine-2-sulfonyl)-azepan-4-ylcarbamoyl]-butyl}-amide]
Cruzain
  Ki: 12 nM
Rhodazain; Rhodazain Ki (nM)
  Ki: 8.3 nM

## CC(C)C[C@H](NC(=O)c1cc2ccccc2o1)C(=O)NC1CCCN(S(=O)(=O)c2cccc(F)c2)CC1=O (stereo partly drawn) [Example 183, Benzofuran-2-carboxylic acid {(S)-1-[-(3-fluoro-benzensulfonyl)-3-oxo-azepan-4-ylcarbamoyl]-3-methyl-1-butyl}-amide]
Cruzain
  Ki: 7.1 nM
Rhodazain; Rhodazain Ki (nM)
  Ki: 6.5 nM

## CC(C)CC(NC(=O)c1ccc(F)cc1)C(=O)N[C@@H]1CCCN(S(=O)(=O)c2cccc[n+]2[O-])CC1=O (stereo partly drawn) [Example 77, 4-Fluoro-{(S)-3-methyl-1-[3-oxo-1-(1-oxy-pyridine-2-sulfonyl)-azepan-4-carbamoyl]-butyl}-benzamide]
Cruzain
  Ki: 15 nM
Rhodazain; Rhodazain Ki (nM)
  Ki: 7.9 nM

## Cc1c(C(=O)N[C@@H](CC(C)C)C(=O)NC2CCCN(S(=O)(=O)c3ccccn3)CC2=O)oc2ccccc12 (stereo partly drawn) [Example 70, 3-Methyl-benzofuran-2-carboxylic acid {(S)-3-methyl-1-[3-oxo-1-(pyridine-2-sulfonyl)-azepan-4-ylcarbamoyl]-butyl}amide]
Cruzain
  Ki: 6.6 nM
Rhodazain; Rhodazain Ki (nM)
  Ki: 5.5 nM

## CC(C)C[C@H](NC(=O)c1cc2ccccc2o1)C(=O)N[C@H]1CCCN(S(=O)(=O)c2cccs2)CC1=O [Example 142, Benzofuran-2-carboxylic acid-{(S)-3-methyl-1-[3-oxo-1-(thiophene-2-sulfonyl)-azepan-4-ylcarbamoyl]-butyl}-amide]
Cruzain
  Ki: 2.4 nM
Rhodazain; Rhodazain Ki (nM)
  Ki: 5.2 nM

## CC(C)C[C@H](NC(=O)c1cnc2ccccc2n1)C(=O)NC1CCCN(C(=O)Nc2ccccc2F)CC1=O (stereo partly drawn) [Example 217, Quinoxaline-2-carboxylic acid {(S)-1-[1-(2-fluoro-phenylcarbamol)-3-oxo-azepan-4-ylcarbamoyl]-3-methyl-butyl}-amide]
Cruzain
  Ki: 11 nM
Rhodazain; Rhodazain Ki (nM)
  Ki: 6.7 nM

## CC(C)C[C@H](NC(=O)c1cc2ccccc2o1)C(=O)N[C@H]1C[C@H](C)CN(S(=O)(=O)c2ccccn2)CC1=O (single isomer, unassigned) [Example 173]
Cruzain
  Ki: 2 nM
Rhodazain; Rhodazain Ki (nM)
  Ki: 2.2 nM

## CC(C)C[C@@H](NC(=O)c1cc2cc(F)c(F)cc2o1)C(=O)N[C@@H]1CCCN(S(=O)(=O)c2ccccn2)CC1=O (stereo in doubt) [Example 149, 5,6-Difluoro-benzofuran-2-carboxylic acid {(S)-3-methyl-1-[1-(pyridine-2-sulfonyl)-3-oxo-azepan-4-ylcarbamoyl]-butyl}amide]
Cruzain
  Ki: 9.1 nM
Rhodazain; Rhodazain Ki (nM)
  Ki: 6.3 nM

## Cc1c(C(=O)N[C@@H](CC(C)C)C(=O)N[C@H]2CCCN(S(=O)(=O)c3nccs3)CC2=O)oc2ccccc12 [Example 126, 3-Methylbenzofuran-2-carboxylic acid {(S)-3-methyl-1-[3-oxo-1-(thiazole-2-sulfonyl)-azepan-4-ylcarbamoyl]-butyl}amide]
Cruzain
  Ki: 4.3 nM
Rhodazain; Rhodazain Ki (nM)
  Ki: 3.8 nM

## Cc1ccc2oc(C(=O)N[C@@H](CC(C)C)C(=O)NC3CCCN(S(=O)(=O)c4cccc[n+]4[O-])CC3=O)c(C)c2c1 (stereo partly drawn) [Example 201, 3,5-Dimethyl-benzofuran-2-carboxylic acid {(S)-3-methyl-1-[3-oxo-1-(1-oxy-pyridine-2-sulfonyl)-azepan-4-ylcarbamoyl]-butyl}-amide]
Cruzain
  Ki: 10 nM
Rhodazain; read-out: Rhodazain Ki
  Ki: 7.6 nM

## CC(C)C[C@@H](NC(=O)c1cc2ccccc2s1)C(=O)N[C@@H]1CCCN(S(=O)(=O)c2ccccn2)CC1=O (stereo in doubt) [Example 31, Benzo[b]thiophene-2-carboxylic acid {(S)-3-methyl-1-[3-oxo-1-(pyridine-2-sulfonyl)-azepan-4-ylcarbamoyl]-butyl}amide]
Cruzain
  Ki: 7.2 nM
Rhodazain; Rhodazain Ki (nM)
  Ki: 5 nM
